Reference: US20230240293A1, “FUNGICIDAL COMPOSITIONS” (SYNGENTA CROP PROTECTION AG, priority 2020, published 2023)
Numbered stars: 1 amine (or outer) side, 2 acyl side, 3 side chain; on linkers, the order of the positions; unused ones are H or OH. Square brackets hold non-standard residues; d marks the D form. Peptide text beside a SMILES is read from it. ξ: configuration not given here. ξNMeVal(3-OH) = CNC(C(=O)O)C(C)(C)O; NMeF = CN[CH](Cc1ccccc1)C(=O)O; X1 = CCC(C)C(O[*:1])C(=O)[*:2]; NMeV = CN[CH](C(=O)O)C(C)C

Assays:
Alternaria solani = test: microbe, parasite or virus in culture; type: cell-based
Text: (§1) A synergistic effect exists whenever the action of an active ingredient combination is greater than the sum of the actions of the individual components. The action to be expected E for a given active ingredient combination obeys the so-called COLBY formula and can be calculated as follows (COLBY, S.R. “Calculating synergistic and antagonistic responses of herbicide combination”, Weeds, Vol. 15, pages 20-22; 1967): • ppm = milligrams of active ingredient (= a.i.) per liter of spray mixture, • X = % action by active ingredient (A) using p ppm of active ingredient, • Y = % action by active ingredient (B) using q ppm of active ingredient. • According to COLBY, the expected (additive) action of active ingredients (A)+(B) using p+q ppm of active ingredient is • [formula]
The compositions according to the invention are tested for their biological (fungicidal) activity as dimethylsulfoxide (DMSO) solutions using one or more of the following protocols (Examples 1-1 and 1-2). A standard description of the liquid culture tests is provided in Example 1.
Mycelia fragments or conidia suspensions of a fungus, prepared either freshly from liquid cultures of the fungus or from cryogenic storage, are directly mixed into nutrient broth. DMSO solutions of the test compound (max. 10 mg/mL) is diluted with 0.025% Tween20 by factor 50 and 10 µL of this solution is pipetted into a microtiter plate (96-well format). The nutrient broth containing the fungal spores/mycelia fragments is then added to give an end concentration of the tested compound. The test plates are incubated in the dark at 24° C. and 96% relative humidity (rh). […]
Conidia of the fungus from cryogenic storage were directly mixed into nutrient broth (PDB potato dextrose broth). After placing a DMSO solution of the test compositions into a microtiter plate (96-well format) the nutrient broth containing the fungal spores was added.

Botrytis cinerea = test: microbe, parasite or virus in culture; type: cell-based; conditions: 72 hours
Text: as §1
A standard description of the liquid culture tests is provided in Example 1.
Mycelia fragments or conidia suspensions of a fungus, prepared either freshly from liquid cultures of the fungus or from cryogenic storage, are directly mixed into nutrient broth. DMSO solutions of the test compound (max. 10 mg/mL) is diluted with 0.025% Tween20 by factor 50 and 10 µL of this solution is pipetted into a microtiter plate (96-well format). […] The test plates are incubated in the dark at 24° C. and 96% relative humidity (rh). The inhibition of fungal growth is determined photometrically and visually after 3 - 7 days, depending on the pathosystem, and percent antifungal activity relative to the untreated check is calculated.
Conidia of the fungus from cryogenic storage were directly mixed into nutrient broth (PDB potato dextrose broth). After placing a DMSO solution of the test compositions into a microtiter plate (96-well format), the nutrient broth containing the fungal spores was added.

CCC(C)C1NC(=O)C2CCCN2C(=O)C(Cc2ccccc2)N(C)C(=O)C(Cc2ccccc2)NC(=O)C(C(C)C)N(C)C(=O)C(C(C)CC)OC(=O)C(C(C)(C)O)N(C)C(=O)C(CC(C)C)NC(=O)C(C(C)C)N(C)C1=O (stereo not drawn) [Aureobasidin A] (cyclo([ξNMeVal(3-OH)][X1][NMeV]F[NMeF]PI[NMeV]L); configuration not given here)
(A) inhibition (Alternaria solani; Aureobasidin A 0.0001 ppm alone, growth determined photometrically after 48 hours): 0%
(A) inhibition (Alternaria solani; Aureobasidin A 0.0002 ppm alone, 48 hours): 11%
(A) inhibition (Alternaria solani; Aureobasidin A 0.0006 ppm alone, 48 hours): 0%
(A) inhibition (Alternaria solani; Aureobasidin A 0.0012 ppm alone, 48 hours): 0%
(A) inhibition (Alternaria solani; Aureobasidin A 0.0025 ppm alone, 48 hours): 0%
(A) inhibition (Alternaria solani; Aureobasidin A 0.0050 ppm alone, 48 hours): 0%
(A) inhibition (Alternaria solani; Aureobasidin A 0.04 ppm alone (fenhexamid table), 48 hours): 40%
(A) inhibition (Botrytis cinerea; Aureobasidin A 0.0025 ppm alone (mefentrifluconazole table)): 8%
(A) inhibition (Botrytis cinerea; Aureobasidin A 0.0050 ppm alone (mefentrifluconazole table)): 7%
(A) inhibition (Botrytis cinerea; Aureobasidin A 0.01 ppm alone (imazalil table)): 27%
(A) inhibition (Botrytis cinerea; Aureobasidin A 0.02 ppm alone (fenhexamid table)): 53%
(A) inhibition (Botrytis cinerea; Aureobasidin A 0.02 ppm alone (imazalil table)): 46%
(A) inhibition (Botrytis cinerea; Aureobasidin A 0.0200 ppm alone (mefentrifluconazole table)): 22%

CC1COC(Cn2cncn2)(c2ccc(Oc3ccc(Cl)cc3)cc2Cl)O1 (stereo not drawn) [Difenoconazole, difenoconazole, reference compound]
inhibition at 0.0156 ppm (Alternaria solani; Alternaria solani, Difenoconazole 0.0156 ppm alone, 48 hours, read-out: (B) inhibition): 30%
inhibition at 0.0313 ppm (Alternaria solani; Alternaria solani, Difenoconazole 0.0313 ppm alone, 48 hours, read-out: (B) inhibition): 43%
inhibition at 0.0625 ppm (Alternaria solani; Alternaria solani, Difenoconazole 0.0625 ppm alone, 48 hours, read-out: (B) inhibition): 65%

CC1(C(=O)Nc2ccc(O)c(Cl)c2Cl)CCCCC1 [Fenhexamid, fenhexamid, reference compound]
inhibition at 0.1 ppm (Alternaria solani; Alternaria solani, Fenhexamid 0.10 ppm alone, 48 hours, read-out: (B) inhibition): 0%
inhibition at 0.0125 ppm (Botrytis cinerea; Botrytis cinerea, Fenhexamid 0.0125 ppm alone, read-out: (B) inhibition): 2%

C=CCOC(Cn1ccnc1)c1ccc(Cl)cc1Cl (stereo not drawn) [Imazalil, imazalil, reference compound]
inhibition at 0.0625 ppm (Botrytis cinerea; Botrytis cinerea, Imazalil 0.0625 ppm alone, read-out: (B) inhibition): 5%
inhibition at 0.125 ppm (Botrytis cinerea; Botrytis cinerea, Imazalil 0.1250 ppm alone, read-out: (B) inhibition): 22%

CC(O)(Cn1cncn1)c1ccc(Oc2ccc(Cl)cc2)cc1C(F)(F)F (stereo not drawn) [Mefentrifluconazole, mefentrifluconazole, reference compound]
(B) inhibition (Botrytis cinerea; Mefentrifluconazole 0.0250 ppm alone): 27%
